Patent US20250170239A1, “CELLULAR REPROGRAMMING BY TARGETING THE GOLGI APPARATUS” (MUSC Foundation for Research Development, priority 2023, published 2025)

Legend:
Assay type in all cases: cell-based, mouse
CD8+ Pmel T cells = assay: RT-PCR of CBS and CSE in cytokine-treated CD8+ Pmel T cells; settings: CD8+ Pmel T cells activated 3 days in presence of cytokine
Text: (FIG. 13A) Pmel T cells were stained with trypan blue stain on day 3 following activation with gp100+IL2 (100 IU/ml) and treated with concentrations of GYY4137 (n=5). (FIG. 13B) Gating strategy for FACS analysis. Pmel splenocytes stained with LIVE/DEAD Fixable Yellow dye and anti-CD8 PE-Cy7. All FACS samples were first gated on the lymphocyte population based on FSA vs SSA. Single cells were gated using FSA vs. FSH. Live cells were gated using live/dead exclusion dye. CD8+ cells were gated by selecting the positive population. (FIG. 13C) Pmel T cells were stimulated with gp100 tumor antigen and treated with either vehicle or GYY4137 (0.5 mM) and analyzed by FACS for expression of CD62L and CD44 at day 0, day 2, day 4, and day 6. […] (FIG. 13F) CD8+ Pmel T cells were activated for 3 days in the presence of various cytokines and analyzed for mRNA expression of CBS and CSE. […] Splenocytes were activated with anti-CD3 and anti-CD28 antibodies an analyzed for expression of Cbs by western blot. (FIG. 13H) Splenocytes from WT and Cbs-KO mice were expanded with either IL-2 or expanded with IL-15 (10 ng/ml) with or without addition of H2S to the Cbs-KO cells and analyzed for expression of CD62L and CD44 by FACS (n=3). […] At day 14, the mice were bled and the frequency of CD3+ T cells was assessed by FACS (n=5). […] (FIG. 13K) Cells were analyzed using FACS for expression of PD1, TIM3, Lag3, and CD38 (n=3). […]

Pmel T cells = assay: Golgi stress (monensin, H2O2, thapsigargin) in Pmel T cells: GM130, ROS, Golgi dispersion; set-up: cell death / mitochondrial ROS / monensin-induced cell death and mitochondrial ROS accumulation / ER stress (p-PERK): dose or concentration left out as unconfirmed
Experimental: (FIG. 21A) Levels of intracellular glutathione assessed using FACS by employing ThiolTracker Violet dye in control CD19 CAR-T cells or CAR-T cells overexpressing Cbs (CbstdCD19-CAR-T) (n=3). (FIG. 21B) 12 hour Thapsigargin (700 nM) treatment was used to induce ER stress in WT T cells, Cbs-KO T cells, and Cbs-KO T cells+H2S. Levels of phosphorylated PERK were assessed by FACS (n=3). (FIG. 21C) Pmel T cells were treated with either Thapsigargin (700 nM) or Monensin (1 mM) for 12 hours, followed by staining for phosphorylated PERK (p-PERK) and GM130 to assess ER stress and Golgi stress, respectively (n=4). (FIG. 21D) Activated Pmel T cells were treated for 12 hours with either vehicle control or 1 mM Monensin (“+Golgi stress”) before being stained for giantin to assess Golgi dispersion. […] (FIG. 21E) Representative confocal microscopy images of mitochondria (Tom20) and Golgi (giantin) in human PBMCs treated with vehicle control or 0.5 mM GYY4137.
T cells were stained with conjugated for surface markers as described in the figure legends followed by fixation and permeabilization with BD Cytofix/Cytoperm Kit (BD Biosciences, 554722). The Golgi was labeled using anti-Giantin antibody (Abcam, ab80864) as the primary antibody followed by secondary antibody staining with anti-Rabbit IgG conjugated to Alexa Fluor 488 (ab150077). The cells were then imaged using ImageStreamX mark II imaging flow-cytometer and analyzed using IDEAS 6.2. Spectral overlap was compensated for using single-stain controls. Image analysis for Golgi area was performed using the protocol established by Eisenberg-Lerner et al.44 First, cells were gated on single cells using the area and aspect ratio features, and then gated on focused cells using the Gradient RMS feature. Golgi area was calculated using the anti-Giantin fluorescence signaling, using on the Threshold_50 mask that includes the 50% highest intensity pixels of the Golgi staining, with a mask defined as Area Threshold 50 was considered as the Golgi area to compare between the relevant conditions.

Prdx4 knockdown T cells = assay: Prdx4 siRNA knockdown Pmel T cells under Golgi/oxidative stress
Experimental: (FIG. 22A) Pmel T cells were activated for 3 days before treatment with vehicle or 50 mM H2O2 for 6 hrs. Prdx4-Golgi colocalization was assessed by PLA using mouse anti-Giantin and rabbit anti-Prdx4 antibodies. (FIG. 22B) Activated Pmel T cells treated with vehicle or 50 mM H2O2 for 6 hrs or 24 hrs with Monensin (1 mM). PLA assay was performed using anti-Giantin and anti-Prdx4 antibodies. (FIG. 22C) Experimental design using Prdx4-targeted siRNA to silence expression of Prdx4 in Pmel T cells. (FIG. 22D) GM130 expression assessed under control versus Monensin (1 μM) conditions in T cells treated with control-siRNA or Prdx4-siRNA. (FIG. 22E) GM130 expression assessed under control versus 50 mM H2O2 conditions in T cells treated with control-siRNA or Prdx4-siRNA+/−0.5 mM GYY4137. (FIG. 22F) Protein translation assessed in Pmel T cells activated+/−GYY4137 and treated with control-siRNA or Prdx4-siRNA. (FIG. 22G) GM130 expression in Pmel T cells treated with vehicle, GYY4137, or Catalase (10 μg/mL). (FIGS. 22H and 22I) Site directed mutagenesis performed to mutate cysteine-54 of the Prdx4 gene. Prdx4-targeted shRNA was used to knock down expression of Prdx4 in Jurkat T cells, followed by transfection with plasmid containing wildtype or mutated Prdx4. (FIG. 22I) GM130 expression assessed after treatment with 50 mM H2O2+/−GYY4137. (FIG. 22J) B16-F10 tumors were injected s.c. into flanks of Pmel mice and grown to ˜100 mm2. TILs and T cells from tumor-draining lymph nodes were isolated via Ficoll spin followed by magnetic bead positive selection. FACS analysis of Prdx4 expression in TILs gated on PD1loLag3lo vs PD1hiLag3hi. (FIG. 22K) Lentiviral supernatant was generated using GFP-tagged control plasmid or GFP-tagged Prdx4-overexpression plasmid. Pmel T cells were transduced with control or Prdx4 lentivirus. Pmel T cells overexpressing Prdx4 and control T cells were treated with H2O2 (50 mM) followed by staining with anti-GM130.
Given the delicate redox balance necessary for the native disulfide bonds, it was postulated that a localized mechanism for the detection and elimination of ROS produced during the oxidative folding process may require Prdx4. Thus, it was hypothesized that ER and Golgi network stress mitigated by H2S is mediated through the Prdx4 localization and activity in these organelles. First, it was established if Prdx4 also localizes within the Golgi apparatus in T cells using a proximity ligation assay (PLA), a tool that allows in situ detection of endogenous proteins with high specificity and sensitivity, with antibodies directed against Giantin (a conserved Golgi membrane protein) and Prdx4. […] Next, using siRNA targeting Prdx4, expression of Prdx4 in CD8+ Pmel T cells was knocked down (FIG. 22C, FIGS. 23A and 23B). The cells were then subjected to conditions of oxidative and Golgi stress in the presence or absence of H2S treatment. […] Then, to determine whether the protective effect of H2S on Golgi stress is dependent on the presence of Prdx4, Golgi stress was induced in the presence or absence of H2S with control (siCtl) and Prdx4 knockdown (siPrdx4) T cells.

Compound: IL6: cytokine that plays a key role in memory formation
- mRNA expression of CBS and CSE (CD8+ Pmel T cells): significantly increased expression of both CBS and CSE

Compound: CC[C@@]1([C@@H]2O[C@@H]([C@H]3O[C@@](O)(CO)[C@H](C)C[C@@H]3C)C[C@@H]2C)CC[C@H]([C@]2(C)CC[C@]3(C[C@H](O)[C@@H](C)[C@@H]([C@@H](C)[C@@H](OC)[C@H](C)C(=O)O)O3)O2)O1 [monensin]
- ER stress (p-PERK) (Pmel T cells): did not induce ER stress
- cell death (Pmel T cells): induced cell death
- mitochondrial ROS (Pmel T cells): cellular accumulation of mitochondrial ROS
- Golgi dispersion (Golgi area, ImageStream) (Pmel T cells; 1 mM Monensin 12 hours): Golgi dispersion significantly increased
- intracellular ROS (DCFDA) (Pmel T cells; 1 mM monensin): significant increase in ROS (DCFDA)
- decrease in GM130 expression, Prdx4 knockdown T cells (Prdx4 knockdown T cells; Monensin (1 μM)): further exacerbated

Compound: C/C=C(/C)C(=O)O[C@H]1C(C)=C2[C@H]([C@@H]1OC(=O)CCCCCCC)[C@@](C)(OC(C)=O)C[C@H](OC(=O)CCC)[C@@]1(O)[C@H]2OC(=O)[C@@]1(C)O [Thapsigargin]
- Golgi stress (GM130) (Pmel T cells; Thapsigargin (700 nM) 12 hours): nor did Thapsigargin induced Golgi stress

Compound: IL15: cytokine known to induce the Tcm phenotype in T cells
- mRNA expression of CBS and CSE (CD8+ Pmel T cells): significantly increased expression of both CBS and CSE

Compound: catalase
- protection against Golgi stress (GM130), Prdx4 knockdown T cells (Prdx4 knockdown T cells; Catalase (10 μg/mL)): protection against Golgi stress could be rescued
